Measured values: patent US20240269104A1, “METHOD FOR TREATING PARKINSON'S DISEASE” (Olatec Therapeutics, Inc., priority 2021, published 2024)

Tested on: α-synuclein
Assay: α-synuclein Western blot in the ventral midbrain after MPTP-subacute administration
Type: in vivo, mice
Conditions: 200 mg/kg for 6 days, 24 hours after last MPTP injection
Experimental: MPTP (Sigma-Aldrich, St. Louis, MO) can be administered at two dose regimens: acute and sub-acute. For the acute regimen, MPTP was administered intraperitoneally (i.p.) four times in one day. Administrations were performed every two hours over an eight-hour period. For the subacute regimen, mice received a single i.p. administration of MPTP per day for five consecutive days. A 20 mg/kg free-base MPTP dose was used for every dose in both models. Sterile saline was used as the vehicle. Control mice were injected with saline solution using the same administration protocol and were defined as sham. Mice were sacrificed at different days after the first injection of MPTP. We used the acute protocol in C56BL/J mice to study dopamine neurodegeneration, inflammation, and motor deficits, whereas the subacute model was used to evaluate α-synuclein aggregation in the following examples.
Since MPTP promotes α-synuclein aggregation after subacute regimen, we evaluated the effect of dapansutrile on the levels of this protein. 24 hours after the last injection of MPTP, mice were sacrificed. The VM was excised, and proteins were resolved as described in Example 9. VM was selected as the region to evaluate α-synuclein accumulation according to previous publications. […] The levels of α-synuclein were determined by Western blot. […]

SMILES: CS(=O)(=O)CCC#N [dapansutrile, 3-methanesulfonylpropionitrile]
- levels of monomeric form of α-synuclein (17 kDa) in the ventral midbrain: significantly reduced
- levels of oligomeric forms of α-synuclein (150-30 kDa) in the ventral midbrain: significantly reduced
